Measured values: ChEMBL document CHEMBL4828771, “Discovery and Development of a Potent, Selective, and Orally Bioavailable CHK1 Inhibitor Candidate: 5-((4-((3-Amino-3-methylbutyl)amino)-5-(trifluoromethyl)pyrimidin-2-yl)amino)picolinonitrile” (J Med Chem, 2021)

Experiments:
hERG (KCNH2) = hERG (KCNH2) (Homo sapiens, UniProt Q12809); assay: Inhibition of human ERG expressed in HEK293 cells at 10 uM by patch-clamp technique relative to control; assay type: cell-based; conditions: HEK293 cells that express hERG
Chain of hERG (KCNH2) (Q12809 whole entry): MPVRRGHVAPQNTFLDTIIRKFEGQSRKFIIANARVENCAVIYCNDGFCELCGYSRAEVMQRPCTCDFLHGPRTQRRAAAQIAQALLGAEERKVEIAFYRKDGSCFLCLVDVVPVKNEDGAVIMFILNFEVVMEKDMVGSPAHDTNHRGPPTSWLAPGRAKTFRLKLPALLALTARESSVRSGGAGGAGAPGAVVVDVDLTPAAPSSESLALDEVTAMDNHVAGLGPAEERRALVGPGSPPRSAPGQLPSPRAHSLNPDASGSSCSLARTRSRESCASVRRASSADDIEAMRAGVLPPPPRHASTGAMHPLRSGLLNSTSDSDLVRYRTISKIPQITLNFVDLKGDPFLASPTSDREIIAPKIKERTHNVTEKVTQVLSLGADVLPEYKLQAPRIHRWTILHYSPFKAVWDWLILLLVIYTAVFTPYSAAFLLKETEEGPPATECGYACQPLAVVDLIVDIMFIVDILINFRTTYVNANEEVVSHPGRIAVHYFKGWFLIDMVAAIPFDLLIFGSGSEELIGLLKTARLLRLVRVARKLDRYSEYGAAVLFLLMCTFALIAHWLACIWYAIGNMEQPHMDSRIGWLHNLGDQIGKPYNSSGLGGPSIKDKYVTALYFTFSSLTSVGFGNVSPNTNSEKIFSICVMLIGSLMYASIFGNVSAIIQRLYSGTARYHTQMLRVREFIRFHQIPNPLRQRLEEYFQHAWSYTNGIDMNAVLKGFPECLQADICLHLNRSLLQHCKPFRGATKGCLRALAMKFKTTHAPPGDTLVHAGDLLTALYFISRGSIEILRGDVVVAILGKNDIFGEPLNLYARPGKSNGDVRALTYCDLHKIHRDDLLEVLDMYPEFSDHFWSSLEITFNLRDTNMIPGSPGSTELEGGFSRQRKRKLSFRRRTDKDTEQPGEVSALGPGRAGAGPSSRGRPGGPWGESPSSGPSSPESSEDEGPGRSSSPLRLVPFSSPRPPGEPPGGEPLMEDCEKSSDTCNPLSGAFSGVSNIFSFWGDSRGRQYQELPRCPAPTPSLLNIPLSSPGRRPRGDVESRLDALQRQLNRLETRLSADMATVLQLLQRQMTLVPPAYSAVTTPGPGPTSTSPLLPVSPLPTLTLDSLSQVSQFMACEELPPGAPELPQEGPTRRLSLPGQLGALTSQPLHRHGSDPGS

Z-138 = assay: Antiproliferation activity against human Z138 cells assessed as reduction in cell viability incubated for 72 hrs by MTS assay; assay type: functional, cell-based; conditions: Z-138, 72 h
MV4-11 = assay: Antiproliferation activity against human MV4-11 cells assessed as reduction in cell viability incubated for 72 hrs by MTS assay; assay type: functional, cell-based; conditions: MV4-11, 72 h
[1] = target: T1, Serine/threonine-protein kinase Chk1 (Homo sapiens, UniProt O14757); assay: Inhibition of CHK1 (unknown origin) incubated for 1 hr in presence of ATP by HTRF assay
T1 sequence (O14757 whole entry): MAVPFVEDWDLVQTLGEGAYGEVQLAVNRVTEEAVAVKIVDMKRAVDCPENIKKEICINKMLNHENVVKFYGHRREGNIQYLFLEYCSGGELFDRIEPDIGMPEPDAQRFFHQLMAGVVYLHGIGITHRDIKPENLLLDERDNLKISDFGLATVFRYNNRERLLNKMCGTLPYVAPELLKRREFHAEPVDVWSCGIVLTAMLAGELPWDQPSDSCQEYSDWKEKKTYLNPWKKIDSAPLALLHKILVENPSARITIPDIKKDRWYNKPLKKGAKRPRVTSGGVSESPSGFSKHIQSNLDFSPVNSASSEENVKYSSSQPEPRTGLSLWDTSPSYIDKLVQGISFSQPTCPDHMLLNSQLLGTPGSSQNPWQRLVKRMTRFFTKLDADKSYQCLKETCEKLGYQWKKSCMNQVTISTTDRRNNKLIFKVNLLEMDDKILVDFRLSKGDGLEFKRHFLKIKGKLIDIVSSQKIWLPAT

Row | Structure (SMILES) | IC50 (MV4-11) [nM] | IC50 [1] [nM] | inhibition at 10 µM (hERG (KCNH2)) [%] | IC50 (Z-138) [nM]
1 | CNc1nc(Nc2cnc(C#N)c(OC3CCNCC3)c2)ncc1C(F)(F)F | 240 | 32.7 |  | 440
2 | CNc1nc(Nc2cnc(C#N)c(OCC3CCNCC3)c2)ncc1C(F)(F)F |  | 213 |  | 
3 | CNc1nc(Nc2cnc(C#N)c(OC3CCN(C)CC3)c2)ncc1C(F)(F)F |  | 53.7 |  | 
4 | CNc1nc(Nc2cnc(C#N)c(OC[C@@H]3CCCNC3)c2)ncc1C(F)(F)F |  | 244 |  | 
5 | CNc1nc(Nc2cnc(C#N)c(NC[C@@H]3CCNC3)c2)ncc1C(F)(F)F | 140 | 20.2 | 2.4 | 270
6 | N#Cc1ccc(Nc2ncc(C(F)(F)F)c(NC3CC4CCC(C3)N4)n2)cn1 (configuration not stated) |  | 624 |  | 
7 | CNc1nc(Nc2cnc(C#N)c(O[C@H]3CCNC3)c2)ncc1C(F)(F)F |  | 45 |  | 
8 | CNc1nc(Nc2cnc(C#N)c(O[C@@H]3CCNC3)c2)ncc1C(F)(F)F | 430 | 21.3 |  | 1410
9 | CNc1nc(Nc2cnc(C#N)c(NC[C@@H]3CCCNC3)c2)ncc1C(F)(F)F |  | 110 |  | 
10 | CNc1nc(Nc2cnc(C#N)c(N[C@H]3CCCNC3)c2)ncc1C(F)(F)F |  | 502 |  | 
11 | CNCCNc1cc(Nc2ncc(C(F)(F)F)c(NC)n2)cnc1C#N | 180 | 27.9 | 46.4 | 270
12 | CNc1nc(Nc2cnc(C#N)c(NC3CN4CCC3CC4)c2)ncc1C(F)(F)F (configuration not stated) |  | 608 |  | 
13 | CNc1nc(Nc2cnc(C#N)c(O[C@H]3CCCNC3)c2)ncc1C(F)(F)F |  | 355 |  | 
14 | CNc1nc(Nc2cnc(C#N)c(NCC3CCCCN3)c2)ncc1C(F)(F)F (configuration not stated) | 160 | 46.9 |  | 210
15 | N#Cc1ncc(Nc2ncc(C(F)(F)F)cn2)cc1O[C@@H]1CCCNC1 |  | 1010 |  | 
16 | CNc1nc(Nc2cnc(C#N)c(NCCN)c2)ncc1C(F)(F)F | 210 | 19.1 | 9 | 400
17 | N#Cc1ccc(Nc2ncc(C(F)(F)F)c(NC3CN4CCC3CC4)n2)cn1 (configuration not stated) |  | 307 |  | 
18 | CNc1nc(Nc2cnc(C#N)c(N[C@H]3CCNC3)c2)ncc1C(F)(F)F |  | 59.5 |  | 
19 | CNc1nc(Nc2cnc(C#N)c(NCCN(C)C)c2)ncc1C(F)(F)F | 260 | 34 |  | 290
20 | CNc1nc(Nc2cnc(C#N)c(N[C@@H]3CCCNC3)c2)ncc1C(F)(F)F | 50 | 12.2 | 81.1 | 720
21 | CNc1nc(Nc2cnc(C#N)c(N[C@H]3CC[C@@H](N)CC3)c2)ncc1C(F)(F)F | 10 | 8.5 | 84.2 | 50
22 | CNc1nc(Nc2cnc(C#N)c(N[C@H]3CC[C@H](N)CC3)c2)ncc1C(F)(F)F | 70 | 33.1 | 5.3 | 960
23 | CNc1nc(Nc2cnc(C#N)c(N[C@@H]3CCN(C)C3)c2)ncc1C(F)(F)F |  | 119 |  | 
24 | CNc1nc(Nc2cnc(C#N)c(NC3CCNCC3)c2)ncc1C(F)(F)F |  | 101 |  | 

More lines, main results first:

Row | IC50 (MV4-11) [nM] | IC50 [1] [nM] | Structure (SMILES) | inhibition at 10 µM (hERG (KCNH2)) [%] | IC50 (Z-138) [nM]
25 | 390 | 26.9 | CC(N)CCNc1nc(Nc2ccc(C#N)nc2)ncc1C(F)(F)F (racemic) | 31.6 | 5700
26 |  | 2260 | N#Cc1ccc(Nc2ncc(C(F)(F)F)c(NCCCNC3CCCCC3)n2)cn1 |  | 
27 |  | 1610 | N#Cc1ccc(Nc2ncc(C(F)(F)F)c(NCCCNCCN3CCOCC3)n2)cn1 |  | 
28 |  | 458 | CN(C)CCCNc1nc(Nc2ccc(C#N)nc2)ncc1C(F)(F)F |  | 
29 |  | 51.1 | CNc1nc(Nc2cnc(C#N)c(NCCCN)c2)ncc1C(F)(F)F |  | 
30 | 400 | 37.3 | N#Cc1ccc(Nc2ncc(C(F)(F)F)c(NC[C@H]3CNCCO3)n2)cn1 | 31.3 | 1130
31 | 300 | 23.8 | N#Cc1ccc(Nc2ncc(C(F)(F)F)c(NC[C@@H]3CCCNC3)n2)cn1 | 41.1 | 1190
32 |  | 65.5 | N#Cc1ccc(Nc2ncc(C(F)(F)F)c(NCC3CCNCC3)n2)cn1 |  | 
33 |  | 69.5 | N#Cc1ccc(Nc2ncc(C(F)(F)F)c(NC3CCCNC3)n2)cn1 (racemic) |  | 
34 |  | 1490 | N#Cc1ccc(Nc2ncc(C(F)(F)F)c(NCCCNC3CCC3)n2)cn1 |  | 
35 |  | 62.6 | N#Cc1ccc(Nc2ncc(C(F)(F)F)c(NCC3CCCNC3)n2)cn1 (racemic) |  | 
36 |  | 111 | N#Cc1ccc(Nc2ncc(C(F)(F)F)c(NC[C@H]3CCCNC3)n2)cn1 |  | 
37 |  | 44.2 | N#Cc1ccc(Nc2ncc(C(F)(F)F)c(N[C@H]3CC[C@@H](N)CC3)n2)cn1 | 36.8 | 
38 |  | 217 | N#Cc1ccc(Nc2ncc(C(F)(F)F)c(NCCCNCCO)n2)cn1 | 35.2 | 
39 |  | 217 | N#Cc1ccc(Nc2ncc(C(F)(F)F)c(NCCN)n2)cn1 |  | 
40 |  | 220 | CC(C)(CN)CNc1nc(Nc2ccc(C#N)nc2)ncc1C(F)(F)F |  | 
41 |  | 214 | N#Cc1ccc(Nc2ncc(C(F)(F)F)c(N[C@H]3CCNC3)n2)cn1 |  | 

Row | IC50 (MV4-11) [nM] | IC50 [1] [nM] | Structure (SMILES) | inhibition at 10 µM (hERG (KCNH2)) [%] | IC50 (Z-138) [nM]
42 |  | 152 | N#Cc1ccc(Nc2ncc(C(F)(F)F)c(NCCCNCC(O)CO)n2)cn1 (configuration not stated) |  | 
43 |  | 107 | N#Cc1ccc(Nc2ncc(C(F)(F)F)c(NCCCNCCC(N)=O)n2)cn1 |  | 
44 |  | 993 | N#Cc1ccc(Nc2ncc(C(F)(F)F)c(NCC3CCCCN3)n2)cn1 (racemic) |  | 
45 |  | 577 | COCCNCCCNc1nc(Nc2ccc(C#N)nc2)ncc1C(F)(F)F |  | 
46 |  | 78 | CNc1nc(Nc2cnc(C#N)c(OCCCN)c2)ncc1C(F)(F)F |  | 
47 |  | 185 | CN1CCC(CNc2nc(Nc3ccc(C#N)nc3)ncc2C(F)(F)F)CC1 |  | 
48 |  | 88.4 | N#Cc1ccc(Nc2ncc(C(F)(F)F)c(NCCCCN)n2)cn1 |  | 
49 | 200 | 40.3 | N#Cc1ccc(Nc2ncc(C(F)(F)F)c(NC[C@@H]3CCNC3)n2)cn1 |  | 1170
50 |  | 1980 | CC(C)NCCCNc1nc(Nc2ccc(C#N)nc2)ncc1C(F)(F)F |  | 
51 |  | 120 | N#Cc1ccc(Nc2ncc(C(F)(F)F)c(NC3CCNCC3)n2)cn1 |  | 
52 |  | 270 | N#Cc1ccc(Nc2ncc(C(F)(F)F)c(NCCCNC3CC3)n2)cn1 |  | 
53 |  | 831 | N#Cc1ccc(Nc2ncc(C(F)(F)F)c(N[C@@H]3CCCNC3)n2)cn1 |  | 
54 | 270 | 28.3 | N#Cc1ccc(Nc2ncc(C(F)(F)F)c(N[C@H]3CCCNC3)n2)cn1 | 74.6 | 160
55 |  | 441 | N#Cc1ccc(Nc2ncc(C(F)(F)F)c(NCCCNC=O)n2)cn1 |  | 
56 |  | 5500 | N#Cc1ccc(Nc2ncc(C(F)(F)F)c(NCCCNC3CCCC3)n2)cn1 |  | 
57 | 150 | 16.3 | CNC(C)CCNc1nc(Nc2ccc(C#N)nc2)ncc1C(F)(F)F (configuration not stated) | 35.5 | 350
